The structures appear in SMILES notation.

Here are results for one compound from patent publication US10973744B2, “Conditioner composition comprising a chelant” (The Procter & Gamble Company, priority 2016, dated 2021).

The test is described as follows: Measurement of copper on hair after shampoo / rinse-off conditioner / leave-on treatment regimen (ICP-OES). Conditions: after 20 regimen cycles, compared to control conditioning shampoo/control rinse-off conditioner. On the procedure: All testing are performed on colored hair switches (see Method of Measurement of copper on hair below) weighing approximately 4.0 grams and having a length of approximately 6 inches. The hair switches are commercially available from IHIP (International Hair Importers). Three hair switches per shampoo composition are used. An amount of […] of shampoo is spread via a syringe onto separate hair switch. That is, the dosage is 0.10 g of shampoo per g of hair. Each application consists of adding shampoo to the hair, milking for 30 seconds followed by rinsing for 30 seconds. Shampoo is then reapplied (0.1 g/g), milked for 30 seconds and rinsed for 30 seconds. Excess water is squeezed from the hair switches and left to air dry or treated with a rinse-off conditioner and/or a leave-on treatment composition. […]
In several cases during this inventigation, the rinse-off conditioner treatment is followed by hair treatment with a leave-on treatment composition. Specifically, the appropriate quantity of the leave-on treatment composition is uniformely sprayed or spread onto separate hair switches (dosage of 0.10 g of solution per g of hair). […]
Samples of 100 mg of hair were digested overnight with 2 ml of high purity concentrated nitric acid. […] Copper content of the hair switches was determined by inductively coupled plasma atomic spectroscopy (ICP-OES)). For each leg, 3 different samples were analyzed. […]

In the case of `NCCNCCNCCN` [2,3-Triethylenetetramine], the “Removal of copper from hair (in words)” value was “effective removal of copper from hair”.
